From patent publication US6458351B2, “Naturally extracted and synthetic hypoglycemic or hypolipidemic compositions” (priority 1999, dated 2002)

What was measured:
[1] = tested on: yeast cells (Yeast strain Carlsbergensis); assay: Yeast fermentation assay (rate of CO2 production under anaerobic conditions); assay type: cell-based, S. carlsbergensis; conditions: synthetic chromium complexes; for Activity in yeast fermentation assay, CO2 production (in words): different concentrations
Experimental: The cells were kept on a solid chromium depleted medium that contained 6.7 g yeast nitrogen base, 20 g of glucose, and 18 g agar per liter. Cells were grown over night in a liquid medium without Cr. Yeast cells were harvested during stationary phase, washed twice and resuspended in 0.1M phosphate buffer pH 5.7. An aliquot of 3×10^8 cells/ml was anaerobically incubated at 30° C. in Warburg vessels in the presence of 10 mM glucose and the examined fraction of GTF extracted from yeast. Enhancement of fermentation rate by natural or synthetic chromium compounds was measured.
Yeast cells were grown over night in liquid medium without Cr. Yeast cells were harvested during stationary phase, washed twice and resuspended in 0.1M phosphate buffer pH 5.7. An aliquot of 3×10^7 cells/ml was anaerobically incubated at 30° C. in Warburg vessels in the presence of 10 mM glucose and the examined fractions extracted from Saltbush.
The activity of the synthetic chromium complexes was examined in the yeast fermentation assay as described above. All the complexes were tested by adding samples of the subject complex, and measuring the rate of CO2 production.

[2] = tested on: streptozoatocin diabetic rats; assay: Effect on insulin activity / blood glucose in streptozotocin diabetic rats; assay type: in vivo; conditions: single dose; insulin at marginal dose 0.005-0.025 mg/Kg body weight
Experimental: Sprague Dawly male rats weighing 120-130 g were injected subcutanously with a single dose of streptozotocin (60 mg/kg body weight) in 0.5 ml citrate buffer, 0.05 M pH 4.5. Plasma glucose concentrations were measured seven days later using commercial glucometer. Animals with blood glucose higher than 250 mg/dl were chosen for the subsequent test with fractions purified from yeast extract or the Saltbush, as described in section 5.1 and 5.2.
When a marginal dose of insulin (0.005-0.025 mg/Kg body weight ) was injected into streptozoatocin diabetic rats a decrease of 10%-15% in blood glucose was observed after the injection. A single dose of active chromium fraction extraction from yeast decreased blood glucose by 15%-20%. A combination of both insulin and chromium containing natural compound from yeast created much higher reduction in blood glucose of 40%-45% reduction.

| Compound | Activity in yeast fermentation assay, CO2 production (in words) [1] | Inhibition of yeast fermentation at high concentrations (in words) [1] | Decrease in blood glucose [2] | Activity in yeast fermentation assay, CO2 production (in words) ([1]; listed as Chromium axcorbate) |
| --- | --- | --- | --- | --- |
| CC(=O)N[C@@H](CS)C(=O)O.[Cr] [Cr-NAC, Chromium N-Acetyl Cysteine] | increases the production of CO2 | partial inhibition | – | – |
| insulin | – | – | 10%-15% | – |
| N[C@@H](CCC(=O)N[C@@H](CS)C(=O)NCC(=O)O)C(=O)O.[Cr] [Cr-GSH, Chromium-Glutathione] | increases the production of CO2 | partial inhibition | – | – |
| Chromium Ascorbate [Cr-Asc] | most active | without any inhibition | – | enhances the production of CO2 |
